Source: publication PMC6901109 (Bioorganic & medicinal chemistry letters, 2019)
One block for each compound: values may come before it.

Experiments:
HLM half-life = format: in vitro ADME; conditions: human, liver microsomes
Cryptococcus spp. = assay: Antifungal activity against Cryptococcus spp.; format: cell-based
HepG2 = HepG2 viability; format: cell-based; conditions: at a concentration of 3 μM
PigW = molecular target: T1, PigW (Homo sapiens, UniProt Q7Z7B1); assay: PigW assay; format: biochemical
T1 sequence (Q7Z7B1 1-504): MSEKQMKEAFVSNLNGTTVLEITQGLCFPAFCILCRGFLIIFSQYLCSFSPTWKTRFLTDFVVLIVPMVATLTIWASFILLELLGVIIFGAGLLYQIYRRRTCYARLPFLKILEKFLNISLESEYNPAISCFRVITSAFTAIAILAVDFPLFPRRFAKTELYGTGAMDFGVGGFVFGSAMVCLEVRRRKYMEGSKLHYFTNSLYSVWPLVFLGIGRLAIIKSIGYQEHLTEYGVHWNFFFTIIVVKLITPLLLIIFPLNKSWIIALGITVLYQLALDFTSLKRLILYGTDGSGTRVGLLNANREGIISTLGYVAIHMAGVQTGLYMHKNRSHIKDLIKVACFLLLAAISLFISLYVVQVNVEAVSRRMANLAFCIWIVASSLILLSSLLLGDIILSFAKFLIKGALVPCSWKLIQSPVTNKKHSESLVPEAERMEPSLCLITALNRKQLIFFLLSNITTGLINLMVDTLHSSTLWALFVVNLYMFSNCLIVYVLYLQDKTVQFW

half-life (HLM half-life): ~3 min
Compound: Nc1ncccc1-c1cc(Cc2ccc(Cc3ccco3)cc2)no1 [Compound 8d]

half-life (HLM half-life): 14 min
Compound: Nc1ncccc1-c1cc(Cc2ccc(Cc3ccc(F)o3)cc2)no1 [Compound 8e]

Compound: Nc1ncccc1-c1cc(Cc2ccc(CNCc3ccn[nH]3)cc2)no1 [Compound 10b]
antifungal activity (in words) (Cryptococcus spp.): inactive

Compound: Cc1nccc(NCc2ccc(Cc3cc(-c4cccnc4N)on3)cc2)n1 [Compound 11b]
antifungal activity (in words) (Cryptococcus spp.): inactive

Compound: Nc1ncccc1-c1cc(Cc2ccc(Oc3ccccn3)cc2)no1 [Compound 12b]
HepG2 cytotoxicity (in words) (HepG2): significant liability

Compound: Cc1occc1COc1ccc(Cc2cc(-c3cccnc3N)on2)cn1 [Compound 13k]
fold weaker antifungal activity compared to the unsubstituted analog 13j (Cryptococcus spp.; ortho-methyl group, vs 13j): about 100 fold

half-life (HLM half-life): 68.2 min
activity against the human homolog PigW (in words) (PigW): significant activity
Compound: Nc1ncccc1-c1cc(Cc2ccc(OCc3cccc(Cl)c3)nc2)no1 [Compound 13l]
